# Test results from patent US6528630B1 (priority 1997, dated 2003).
# Experiments:
# α1B-1α2bβ1-2 [1] = target: T1, α1B-1α2bβ1-2 (Homo sapiens, UniProt Q00975); format: cell-based
# T1 construct: A full-length α1B DNA clone was constructed by ligating portions of the partial cDNA clones; expressed in transfected cells; host or cells: HEK293 (transient)
# [2] = tested on: human neuronal calcium channel α2 and β1 subunits; assay: Two-electrode voltage clamp of Xenopus oöcytes injected with α2 and β1 transcripts; details: Bay K 8644; n=11
# [3] = tested on: untransfected HEK 293 cells; assay: Whole-cell patch clamp of untransfected HEK 293 cells; format: cell-based, human; details: with or without cAMP or forskolin
# α1B-1α2bβ1-3 = target: T2, α1B-1α2bβ1-3 (Homo sapiens, UniProt Q00975); format: binding
# T2 construct: A full-length α1B DNA clone was constructed by ligating portions of the partial cDNA clones; expressed in transfected cells; host or cells: HEK293 (transient)
# α1B-2β1-3 = target: T3, α1B-2β1-3 (Homo sapiens, UniProt Q00975); format: binding
# T3 construct: Full-length DNA clones and corresponding RNA transcripts, encoding α1, including splice variants of α1A, α1B; expressed in transfected cells; host or cells: HEK293 (transient)
# α1B-1α2b = target: T4, α1B-1α2b (Homo sapiens, UniProt Q00975); format: binding
# T4 construct: A full-length α1B DNA clone was constructed by ligating portions of the partial cDNA clones; expressed in transfected cells; host or cells: HEK293 (transient)
# α1B-2α2bβ1-3 = target: T5, α1B-2α2bβ1-3 (Homo sapiens, UniProt Q00975); format: binding
# T5 construct: Full-length DNA clones and corresponding RNA transcripts, encoding α1, including splice variants of α1A, α1B; expressed in transfected cells; host or cells: HEK293 (transient)
# T5 sequence (Q00975 1-2237 isoform Q00975-2): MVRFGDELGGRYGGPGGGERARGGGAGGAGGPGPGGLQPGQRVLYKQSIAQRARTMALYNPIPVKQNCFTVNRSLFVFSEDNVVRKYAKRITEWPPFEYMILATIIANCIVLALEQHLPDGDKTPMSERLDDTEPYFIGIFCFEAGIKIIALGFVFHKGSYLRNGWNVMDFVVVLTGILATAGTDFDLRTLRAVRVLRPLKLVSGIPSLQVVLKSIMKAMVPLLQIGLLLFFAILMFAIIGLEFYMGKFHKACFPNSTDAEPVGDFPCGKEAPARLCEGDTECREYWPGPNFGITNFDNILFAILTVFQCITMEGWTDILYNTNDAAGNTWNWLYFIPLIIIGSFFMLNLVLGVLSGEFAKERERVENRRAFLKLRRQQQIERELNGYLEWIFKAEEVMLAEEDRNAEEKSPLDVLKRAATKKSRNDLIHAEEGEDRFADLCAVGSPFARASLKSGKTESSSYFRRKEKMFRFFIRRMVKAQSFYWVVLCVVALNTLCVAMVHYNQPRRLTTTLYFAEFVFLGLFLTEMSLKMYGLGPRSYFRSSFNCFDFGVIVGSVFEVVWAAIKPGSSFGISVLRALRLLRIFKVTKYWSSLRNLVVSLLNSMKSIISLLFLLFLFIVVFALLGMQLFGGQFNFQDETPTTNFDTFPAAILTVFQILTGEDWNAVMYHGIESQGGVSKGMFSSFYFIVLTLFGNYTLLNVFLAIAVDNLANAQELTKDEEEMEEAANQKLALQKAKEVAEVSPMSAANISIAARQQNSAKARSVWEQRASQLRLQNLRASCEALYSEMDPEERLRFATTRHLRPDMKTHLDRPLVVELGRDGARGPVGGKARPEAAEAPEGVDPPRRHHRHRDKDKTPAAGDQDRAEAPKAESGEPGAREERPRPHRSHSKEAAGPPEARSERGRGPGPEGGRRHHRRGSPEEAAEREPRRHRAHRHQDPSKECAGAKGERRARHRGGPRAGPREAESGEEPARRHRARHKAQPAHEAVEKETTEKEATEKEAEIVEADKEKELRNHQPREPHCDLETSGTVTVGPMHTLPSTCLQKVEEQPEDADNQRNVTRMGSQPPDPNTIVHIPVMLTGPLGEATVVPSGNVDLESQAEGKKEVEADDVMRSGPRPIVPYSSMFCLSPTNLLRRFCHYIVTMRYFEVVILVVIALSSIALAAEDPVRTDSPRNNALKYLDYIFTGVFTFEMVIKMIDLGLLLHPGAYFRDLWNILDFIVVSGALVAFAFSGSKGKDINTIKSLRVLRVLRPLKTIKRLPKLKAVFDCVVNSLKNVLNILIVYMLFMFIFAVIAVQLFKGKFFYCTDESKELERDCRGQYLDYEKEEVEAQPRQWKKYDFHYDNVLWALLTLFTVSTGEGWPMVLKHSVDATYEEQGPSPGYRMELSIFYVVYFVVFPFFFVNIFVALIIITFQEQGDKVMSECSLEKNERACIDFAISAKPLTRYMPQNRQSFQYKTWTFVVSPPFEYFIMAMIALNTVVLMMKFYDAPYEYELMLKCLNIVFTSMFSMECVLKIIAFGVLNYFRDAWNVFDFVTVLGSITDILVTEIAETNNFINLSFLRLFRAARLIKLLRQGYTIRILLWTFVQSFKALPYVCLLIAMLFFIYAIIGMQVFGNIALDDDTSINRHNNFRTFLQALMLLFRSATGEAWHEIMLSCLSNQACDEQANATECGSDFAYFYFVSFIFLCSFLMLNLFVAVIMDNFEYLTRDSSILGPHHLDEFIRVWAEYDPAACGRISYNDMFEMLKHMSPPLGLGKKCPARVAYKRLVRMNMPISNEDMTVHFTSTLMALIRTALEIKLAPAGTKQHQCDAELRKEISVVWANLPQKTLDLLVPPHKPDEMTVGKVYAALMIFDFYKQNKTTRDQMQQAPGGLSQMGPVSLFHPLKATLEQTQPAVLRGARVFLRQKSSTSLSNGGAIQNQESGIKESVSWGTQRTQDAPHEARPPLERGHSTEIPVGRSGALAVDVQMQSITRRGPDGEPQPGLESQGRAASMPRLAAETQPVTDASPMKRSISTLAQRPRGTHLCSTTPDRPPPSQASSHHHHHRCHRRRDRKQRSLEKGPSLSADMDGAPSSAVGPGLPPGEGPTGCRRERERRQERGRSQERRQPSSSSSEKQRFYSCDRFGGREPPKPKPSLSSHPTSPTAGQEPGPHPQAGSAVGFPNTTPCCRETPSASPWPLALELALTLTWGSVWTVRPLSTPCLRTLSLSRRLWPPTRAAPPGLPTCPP
# α1B-1α2bβ1-2 [4] = target: T1, α1B-1α2bβ1-2; format: binding
# α1B-2β1-2 = target: T6, α1B-2β1-2 (Homo sapiens, UniProt Q00975); format: binding
# T6 construct: Full-length DNA clones and corresponding RNA transcripts, encoding α1, including splice variants of α1A, α1B; expressed in transfected cells; host or cells: HEK293 (transient)
# T6 sequence (Q00975 1-2237 isoform Q00975-2): as above
# T6 sequence (Q02641 1-478 isoform Q02641-3 partner): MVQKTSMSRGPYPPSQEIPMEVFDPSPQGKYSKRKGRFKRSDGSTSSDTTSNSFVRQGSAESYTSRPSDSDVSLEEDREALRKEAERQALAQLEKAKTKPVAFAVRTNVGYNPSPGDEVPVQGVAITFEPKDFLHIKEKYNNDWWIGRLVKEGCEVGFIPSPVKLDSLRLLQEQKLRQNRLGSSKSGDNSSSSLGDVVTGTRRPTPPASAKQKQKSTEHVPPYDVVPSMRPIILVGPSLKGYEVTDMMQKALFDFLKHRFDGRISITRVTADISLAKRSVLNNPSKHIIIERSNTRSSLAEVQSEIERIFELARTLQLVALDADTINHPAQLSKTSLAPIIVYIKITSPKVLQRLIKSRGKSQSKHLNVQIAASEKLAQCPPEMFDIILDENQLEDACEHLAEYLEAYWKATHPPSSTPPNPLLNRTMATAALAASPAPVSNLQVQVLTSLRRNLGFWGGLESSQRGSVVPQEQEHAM
# α1B-2a2bβ1-2 = target: T7, α1B-2a2bβ1-2 (Homo sapiens, UniProt Q00975); format: binding
# T7 construct: Full-length DNA clones and corresponding RNA transcripts, encoding α1, including splice variants of α1A, α1B; expressed in transfected cells; host or cells: HEK293 (transient)
# T7 sequence (Q00975 1-2237 isoform Q00975-2): as the sequence (Q00975 1-2237 isoform Q00975-2) above
# α1B-1β1-2 = target: T8, α1B-1β1-2 (Homo sapiens, UniProt Q00975); format: binding
# T8 construct: A full-length α1B DNA clone was constructed by ligating portions of the partial cDNA clones; expressed in transfected cells; host or cells: HEK293 (transient)
# α1B-1β1-3 = target: T9, α1B-1β1-3 (Homo sapiens, UniProt Q00975); format: binding
# T9 construct: A full-length α1B DNA clone was constructed by ligating portions of the partial cDNA clones; expressed in transfected cells; host or cells: HEK293 (transient)
# [5] = target: T10, α1B-1, α2b, and β1-2 subunits (Homo sapiens, UniProt Q00975); format: binding
# T10 construct: A full-length α1B DNA clone was constructed by ligating portions of the partial cDNA clones; expressed in transfected cells; host or cells: HEK293 (transient)
# T1 sequence (Q00975 whole entry, looked up): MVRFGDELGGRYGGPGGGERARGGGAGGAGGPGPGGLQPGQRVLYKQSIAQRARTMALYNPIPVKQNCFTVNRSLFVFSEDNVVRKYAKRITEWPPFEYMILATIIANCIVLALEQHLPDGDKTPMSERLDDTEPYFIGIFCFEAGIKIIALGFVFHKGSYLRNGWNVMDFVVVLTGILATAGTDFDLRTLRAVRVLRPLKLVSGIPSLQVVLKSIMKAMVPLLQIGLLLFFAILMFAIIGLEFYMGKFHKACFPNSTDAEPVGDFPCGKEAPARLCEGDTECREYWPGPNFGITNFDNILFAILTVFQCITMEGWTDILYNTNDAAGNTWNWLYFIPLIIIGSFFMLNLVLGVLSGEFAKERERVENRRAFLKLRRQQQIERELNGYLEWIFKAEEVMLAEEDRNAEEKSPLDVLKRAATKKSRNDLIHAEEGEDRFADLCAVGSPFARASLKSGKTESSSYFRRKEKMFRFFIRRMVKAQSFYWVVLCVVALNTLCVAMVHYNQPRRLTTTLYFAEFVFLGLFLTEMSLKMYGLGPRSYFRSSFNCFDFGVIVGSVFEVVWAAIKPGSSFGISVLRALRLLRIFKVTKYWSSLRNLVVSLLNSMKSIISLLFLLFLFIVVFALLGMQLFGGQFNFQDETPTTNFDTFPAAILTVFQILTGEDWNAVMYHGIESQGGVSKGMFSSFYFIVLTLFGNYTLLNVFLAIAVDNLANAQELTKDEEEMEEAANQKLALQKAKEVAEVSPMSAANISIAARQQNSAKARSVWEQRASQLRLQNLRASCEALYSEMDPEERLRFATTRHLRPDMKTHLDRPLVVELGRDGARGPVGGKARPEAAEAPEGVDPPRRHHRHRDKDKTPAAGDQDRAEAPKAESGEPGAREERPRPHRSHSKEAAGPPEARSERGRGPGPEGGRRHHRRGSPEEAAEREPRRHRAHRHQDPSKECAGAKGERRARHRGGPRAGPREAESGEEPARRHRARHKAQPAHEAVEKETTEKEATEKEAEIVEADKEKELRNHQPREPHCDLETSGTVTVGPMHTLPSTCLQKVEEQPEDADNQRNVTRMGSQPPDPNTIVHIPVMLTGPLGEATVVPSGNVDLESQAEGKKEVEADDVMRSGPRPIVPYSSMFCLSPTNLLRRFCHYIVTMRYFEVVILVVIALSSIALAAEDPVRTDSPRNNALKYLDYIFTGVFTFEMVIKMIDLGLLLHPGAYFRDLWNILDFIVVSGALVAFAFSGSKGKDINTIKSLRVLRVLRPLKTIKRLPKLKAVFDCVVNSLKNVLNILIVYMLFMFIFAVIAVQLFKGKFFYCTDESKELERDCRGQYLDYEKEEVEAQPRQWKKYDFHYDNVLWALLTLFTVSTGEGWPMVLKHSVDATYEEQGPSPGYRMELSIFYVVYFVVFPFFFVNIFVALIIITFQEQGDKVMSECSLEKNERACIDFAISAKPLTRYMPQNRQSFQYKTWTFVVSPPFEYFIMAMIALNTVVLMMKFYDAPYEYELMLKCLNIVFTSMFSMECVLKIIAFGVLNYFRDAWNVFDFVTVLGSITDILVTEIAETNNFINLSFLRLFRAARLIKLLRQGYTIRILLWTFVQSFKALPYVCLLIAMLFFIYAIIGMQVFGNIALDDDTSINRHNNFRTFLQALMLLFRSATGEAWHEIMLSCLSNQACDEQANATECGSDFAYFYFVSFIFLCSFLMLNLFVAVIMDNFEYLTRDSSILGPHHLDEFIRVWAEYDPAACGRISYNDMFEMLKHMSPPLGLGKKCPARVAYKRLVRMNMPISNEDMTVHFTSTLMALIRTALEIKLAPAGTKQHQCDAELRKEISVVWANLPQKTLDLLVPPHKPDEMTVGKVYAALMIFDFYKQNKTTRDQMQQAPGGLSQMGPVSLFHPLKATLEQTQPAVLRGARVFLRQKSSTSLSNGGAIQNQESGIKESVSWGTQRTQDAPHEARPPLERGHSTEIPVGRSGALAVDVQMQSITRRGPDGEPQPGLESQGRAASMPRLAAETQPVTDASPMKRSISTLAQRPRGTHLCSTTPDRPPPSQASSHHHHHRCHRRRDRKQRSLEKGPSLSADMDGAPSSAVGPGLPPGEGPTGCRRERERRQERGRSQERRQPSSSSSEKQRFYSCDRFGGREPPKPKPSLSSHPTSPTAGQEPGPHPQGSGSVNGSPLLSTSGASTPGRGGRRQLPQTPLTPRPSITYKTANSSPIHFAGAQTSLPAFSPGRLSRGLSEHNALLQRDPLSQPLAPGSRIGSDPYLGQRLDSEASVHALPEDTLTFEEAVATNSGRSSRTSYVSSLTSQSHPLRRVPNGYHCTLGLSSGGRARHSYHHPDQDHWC
structure (smiles),measurement,setting,value
COC(=O)C1=C(C)NC(C)=C([N+](=O)[O-])C1c1ccccc1C(F)(F)F (centres unmarked) [Bay K 8644],effect on channel activity,"α1B-1α2bβ1-2 [1]; 1 μM, n=4",no discernable effect
same,sensitivity of inward barium currents,[2],insensitive
same,"effects of Bay K 8644 (current magnitude, tail currents, activation voltage)",[3],No such effects
C[C@@H](O)[C@@H]1NC(=O)[C@H](Cc2ccc(O)cc2)NC(=O)[C@@H]2C[C@@H](O)CN2C(=O)[C@H](CC(N)=O)NC(=O)[C@@H]2CSSC[C@@H]3NC(=O)[C@H](CO)NC(=O)[C@H](CO)NC(=O)CNC(=O)[C@@H]4C[C@@H](O)CN4C(=O)[C@H](CO)NC(=O)[C@H](CCCCN)NC(=O)[C@@H](N)CSSC[C@H](NC(=O)[C@H](CSSC[C@@H](C(=O)N[C@@H](Cc4ccc(O)cc4)C(N)=O)NC(=O)[C@H](CCCNC(=N)N)NC(=O)[C@H](CCCCN)NC1=O)NC(=O)[C@H](CC(N)=O)NC(=O)[C@H](Cc1ccc(O)cc1)NC(=O)[C@H](CO)NC(=O)[C@H]([C@@H](C)O)NC(=O)[C@@H]1C[C@@H](O)CN1C(=O)[C@H](CO)NC3=O)C(=O)N[C@@H](CCCNC(=N)N)C(=O)N[C@@H](CO)C(=O)N2 [^125I-ω-CgTx GVIA],Bmax (sites/cell),α1B-1α2bβ1-3,"91,004 ± 37,654 sites/cell"
same,Bmax (sites/cell),α1B-2β1-3,"2,944 ± 1,168 sites/cell"
same,Bmax (sites/cell),α1B-1α2b,"2,256 ± 356 sites/cell"
same,Bmax (sites/cell),α1B-2α2bβ1-3,"37,652 ± 8,129 sites/cell"
same,Bmax (sites/cell),α1B-1α2bβ1-2 [4],"45,324 ± 15,606 sites/cell"
same,Bmax (sites/cell),α1B-2β1-2,"2,126 ± 412 sites/cell"
same,Bmax (sites/cell),α1B-2a2bβ1-2,"19,371 ± 3,798 sites/cell"
same,Bmax (sites/cell),α1B-1β1-2,"5,756 ± 2,163 sites/cell"
same,Bmax (sites/cell),α1B-1β1-3,"8,729 ± 2,980 sites/cell"
[Cd] [cadmium],blockage,α1B-1α2bβ1-2 [1]; 50 μM,"rapid, complete, and reversible"
C[C@@H](O)[C@@H]1NC(=O)[C@H](Cc2ccc(O)cc2)NC(=O)[C@@H]2C[C@@H](O)CN2C(=O)[C@H](CC(N)=O)NC(=O)[C@@H]2CSSC[C@@H]3NC(=O)[C@H](CO)NC(=O)[C@H](CO)NC(=O)CNC(=O)[C@@H]4C[C@@H](O)CN4C(=O)[C@H](CO)NC(=O)[C@H](CCCCN)NC(=O)[C@@H](N)CSSC[C@H](NC(=O)[C@H](CSSC[C@@H](C(=O)N[C@@H](Cc4ccc(O)cc4)C(N)=O)NC(=O)[C@H](CCCNC(=N)N)NC(=O)[C@H](CCCCN)NC1=O)NC(=O)[C@H](CC(N)=O)NC(=O)[C@H](Cc1ccc(O)cc1)NC(=O)[C@H](CO)NC(=O)[C@H]([C@@H](C)O)NC(=O)[C@@H]1C[C@@H](O)CN1C(=O)[C@H](CO)NC3=O)C(=O)N[C@@H](CCCNC(=N)N)C(=O)N[C@@H](CO)C(=O)N2 [ω-CgTX],block of activity,α1B-1α2bβ1-2 [1],blocked the activity completely
same,block of channels,α1B-1α2bβ1-2 [1],blocked irreversibly
same,time to complete block,α1B-1α2bβ1-2 [1],≤ 2 min
same,binding capacity (Bmax),[5],"28,710±11,950 sites per cell"
